The text below walks through data of US7888390B2, “Preparation of platinum(II) complexes” (Platco Technologies (Proprietary) Limited, priority 2003, dated 2011).

Format in all cases: cell-based
One test has as its system breast cancer. Briefly: Anticancer testing, inhibition on breast cancer, medium containing 10 mM glutathione. As to conditions: 100 μM solution.
The subject of another test is colon cancer cells. Briefly: Anticancer testing, inhibition of colon cancer cells, medium containing 10 mM glutathione. As to conditions: 100 μM.
A further test relates to cervical cancer cells. Briefly: Anticancer testing, inhibition of cervical cancer cells, 5% foetal calf serum medium. As to conditions: 5% foetal calf serum as medium.

As to `CSCCCc1nccn1C.O=C([O-])C(=O)[O-].[Pt+2]` [Example 6, oxalato(1-methyl-2-methylthiopropylimidazole)platinum(II)], in the test with breast cancer, the “inhibition on breast cancer” value amounted to 72%. Further, the “inhibition of colon cancer cells” value in the test with colon cancer cells is given as 85%. For the same compound, the results for the “percentage inhibition on cervical cancer cells” value in the test on cervical cancer cells (10 μM solution) and in the test on cervical cancer cells (100 μM solution) were 88.6% and 97.7%, respectively.
`N.N.[Cl][Pt][Cl]` [cisplatin]: the “inhibition on breast cancer” value in the test with breast cancer came to 10%. Besides, the “inhibition of colon cancer cells” value in the test on colon cancer cells is on record as 48%. The results for the “percentage inhibition on cervical cancer cells” value in the test on cervical cancer cells (10 μM solution) and in the test with cervical cancer cells (100 μM solution) were 85.4% and 95.3%, respectively.
